Measured values published in ChEMBL document CHEMBL1148105, “Bioactive metabolites from a marine-derived strain of the fungus Emericella variecolor” (2002).

Experiments:
Format in all cases: functional
Enterococcus faecalis = assay: Antimicrobial activity against Enterococcus faecalis
Staphylococcus aureus = assay: Antimicrobial activity against Staphylococcus aureus
Escherichia coli = assay: Antimicrobial activity against Escherichia coli
Bacillus subtilis = assay: Antimicrobial activity against Bacillus subtilis

Measured: MIC

C=C(C)[C@H]1COc2c(C)cc3oc4c(CC=C(C)C)ccc(O)c4c(=O)c3c2[C@@H]1O [SHAMIXANTHONE]
50 µg/mL: all assays above

C=C(C)[C@H]1COc2c(C)cc3oc4c(C[C@H](O)C(C)(C)O)ccc(O)c4c(=O)c3c2[C@@H]1O.O [TAJIXANTHONE HYDRATE]
50 µg/mL: all assays above
